The target in this assay is T1, Rhesus PDE2A3 (Macaca mulatta, UniProt B3VTJ2).
T1 construct: made in house; host or cells: AD293 cells, transient transfection, pcDNA3.3-TOPO; lysate supernatant used as enzyme
T1 sequence (B3VTJ2 1-941): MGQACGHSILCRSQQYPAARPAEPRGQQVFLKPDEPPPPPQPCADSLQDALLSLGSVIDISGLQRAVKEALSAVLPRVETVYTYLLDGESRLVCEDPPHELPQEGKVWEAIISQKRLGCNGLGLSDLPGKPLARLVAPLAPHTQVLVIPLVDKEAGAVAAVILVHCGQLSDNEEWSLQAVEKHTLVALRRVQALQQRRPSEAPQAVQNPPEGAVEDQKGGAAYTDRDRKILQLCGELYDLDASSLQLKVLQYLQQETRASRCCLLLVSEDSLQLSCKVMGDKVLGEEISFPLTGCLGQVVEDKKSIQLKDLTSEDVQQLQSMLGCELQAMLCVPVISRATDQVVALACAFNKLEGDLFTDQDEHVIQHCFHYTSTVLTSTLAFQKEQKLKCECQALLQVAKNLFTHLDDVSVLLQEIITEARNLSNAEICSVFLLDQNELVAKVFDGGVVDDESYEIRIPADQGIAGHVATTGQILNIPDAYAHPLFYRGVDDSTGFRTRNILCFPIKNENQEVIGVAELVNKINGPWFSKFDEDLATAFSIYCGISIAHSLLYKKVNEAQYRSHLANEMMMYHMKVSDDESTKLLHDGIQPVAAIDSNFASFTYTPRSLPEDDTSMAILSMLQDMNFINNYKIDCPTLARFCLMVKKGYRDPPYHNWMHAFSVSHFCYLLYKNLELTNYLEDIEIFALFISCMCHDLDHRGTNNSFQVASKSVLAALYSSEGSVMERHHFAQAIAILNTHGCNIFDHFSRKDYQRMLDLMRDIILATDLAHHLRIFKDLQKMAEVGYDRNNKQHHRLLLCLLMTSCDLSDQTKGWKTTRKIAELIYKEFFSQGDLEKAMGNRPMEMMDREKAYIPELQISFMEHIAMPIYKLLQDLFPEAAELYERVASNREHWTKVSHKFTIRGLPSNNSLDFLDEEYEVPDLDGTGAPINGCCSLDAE
In words: PDE2 fluorescence polarization (IMAP FP) inhibition assay, rhesus enzyme. It counts as biochemical, rhesus macaque. Put shortly: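 Lysate of AD293 cells transiently expressing rhesus PDE2A3, diluted for ~20% substrate conversion, with 50 nM FAM-cAMP and 1 uM cGMP activator in pH 7.2 Tris/MgCl2 buffer, 60 min at room temperature.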

Where [1] appears, read: Lab A, read-out: Rhesus PDE2 Ki (nM) Lab A.
Where [2] appears, read: Lab B, read-out: Rhesus PDE2 Ki (nM) Lab B.

Where two headings read alike, the source gives them in different places.

With `CC(c1ccc(C(F)(F)F)cc1F)n1cc(-c2cc(=O)[nH]c(Cc3ccccc3)n2)cn1` (centres unmarked) [Example 35, 2-benzyl-6-(1-(1-(2-fluoro-4-(trifluoromethyl)phenyl)ethyl)-1H-pyrazol-4-yl)pyrimidin-4(3H)-one], the Ki reads like this: under setting [1], 38.3 nM; under setting [2], 17.3 nM.

For `COc1cccc(Cc2nc(-c3cnn(C(C)c4ccc(C(F)(F)F)cc4F)c3)cc(=O)[nH]2)c1` (single isomer, unassigned) [Example 140, (R)- or (S)-6-(1-(1-(2-fluoro-4-(trifluoromethyl)phenyl)ethyl)-1H-pyrazol-4-yl)-2-(3-methoxybenzyl)pyrimidin-4(3H)-one], the Ki stood at 3 nM under setting [1] and 0.8 nM under setting [2].

`Cc1nc(-n2cc(C(C)c3ccc(C4CC4)cc3)cn2)cc(=O)[nH]1` (centres unmarked) [Example 39, 6-(4-(1-(4-cyclopropylphenyl)ethyl)-1H-pyrazol-1-yl)-2-methylpyrimidin-4(3H)-one]: under setting [2], the Ki was 99.9 nM.

These data come from patent US10287269B2, “Pyrazolyl pyrimidinone compounds as PDE2 inhibitors” (Merck Sharp & Dohme Corp., priority 2015, dated 2019).
